Assay type in all cases: cell-based
One test deals with Proteus mirabilis 1287. Nature of the test: Heart Infusion Agar Dilution Method, antimicrobial activity (MIC). The note with it: Proteus mirabilis, 1287, pH 7.2, Proteus mirabilis 1287. From the text: (§1) Antimicrobial activities of the compounds obtained in Reference Examples 1 and 2 are as follows. Heart Infusion Agar Dilution Method (pH 7.2) is used. A cephalosporin compound having the same acyl side chain corresponding to the dl-compound is used as a control. The compounds are identified as follows.

For the next test, the system named is Proteus morganii KY 4298. Described as above.
Source text: as §1

Another test concerns Proteus vulgaris 6897. Described as above. The conditions noted are these: Proteus vulgaris, 6897, pH 7.2, Proteus vulgaris 6897.
Source text: as §1

For a further test, the system named is Serratia marcescens T-26. The description is as above.
Source text: as §1

Test [1] has as its system Pseudomonas aeruginosa #1. The description is as above.
Source text: as §1

Test [2] concerns Klebsiella pneumoniae 8045. The description is as above. The conditions noted are these: Klebsiella pneumoniae, 8045, pH 7.2, Klebsiella pneumoniae 8045.
Source text: as §1

A further test deals with Escherichia coli NIHJC-2. Described as above.
Source text: as §1

A further test concerns Proteus rettgeri KY 4289. The test is described as above. The note with it: Providencia rettgeri, KY4289, pH 7.2.
Source text: as §1

The subject of a further test is Serratia marcescens T-55. The test is described as above.
Source text: as §1

The test system of another test is Escherichia coli Juhl. The description is as above.
Source text: as §1

The subject of test [3] is Escherichia coli GN2411-5. The test is described as above.
Source text: as §1

For test [4], the system named is Staphylococcus aureus 209-P. Described as above.
Source text: as §1

Test [5] concerns Klebsiella pneumoniae Y-60. The description is as above.
Source text: as §1

The subject of test [6] is Staphylococcus aureus Smith. Described as above. From the text: (§2) Heart Infusion Agar Dilution Method (pH 7.2) is used. A cephalosporin compound having the same acyl side chain corresponding to the dl-compound is used as a control. The compounds are identified as follows.
Test [7] is described as follows: antimicrobial activity (stated in words).
Source text: as §1

Test [8] has as its system Pseudomonas aeruginosa 145. Nature of the test: Heart Infusion Agar Dilution Method, antimicrobial activity (MIC). The conditions noted are these: Pseudomonas aeruginosa, 145, pH 7.2, Pseudomonas aeruginosa 145.
Source text: as §1
In general terms: In agar dilution, organisms are placed on agar that contains the substance at set levels.

The test system of the next test is Pseudomonas putida 264. The description is as above.
Source text: as §1

For test [9], the system named is Staphylococcus epidermidis. The test is described as above. The note with it: pH 7.2.
Source text: as §2

[10] abbreviates: Morganella morganii, KY4298, pH 7.2, Proteus morganii KY 4298, read-out: MIC.
The mark [11] stands for this setting: Serratia marcescens T-55, pH 7.2.
[12] abbreviates: Staphylococcus aureus 209-P, pH 7.2.
The mark [13] stands for this setting: Serratia marcescens, T26, pH 7.2, Serratia marcescens T-26, read-out: MIC.
The mark [14] stands for this setting: Pseudomonas aeruginosa, pH 7.2, Pseudomonas aeruginosa #1, read-out: MIC.
Where [15] appears, read: Escherichia coli, NIHJC2, pH 7.2, Escherichia coli NIHJC-2, read-out: MIC.
Setting [16] is: Escherichia coli, pH 7.2, Escherichia coli Juhl, read-out: MIC.
Where [17] appears, read: Escherichia coli, GN2411, pH 7.2, Escherichia coli GN2411-5, read-out: MIC.
Where [18] appears, read: Klebsiella pneumoniae, Y60, pH 7.2, Klebsiella pneumoniae Y-60, read-out: MIC.

The results in this text go back to patent publication US4316958A, “Process for producing optically active cephalosporin analogs” (Kyowa Hakko Kogyo Co., Ltd., priority 1979, dated 1982).

The structures appear in SMILES notation. ≈ marks a conversion by molar mass, not a printed value. Like-named read-outs stand apart in the source and are kept apart here.

Usually MIC stands for the lowest concentration found to suppress growth. For the compound `CO/N=C(\C(=O)N[C@@H]1C(=O)N2C(C(=O)O)=CCC[C@H]12)c1csc(N)n1` [A, (+)-cis-7-[2-(2-amino-4-thiazolyl)-2-syn-methoxyiminoacetamido]-1-azabicyclo[4,2,0]oct-2-en-8-on-2-carboxylic acid], the MIC is 0.01 µg/mL (≈ 0.0274 µM) in the test with Proteus mirabilis 1287; 0.05 µg/mL (≈ 0.137 µM) in the test with Proteus morganii KY 4298 (setting [10]); no more than 0.006 µg/mL against Proteus vulgaris 6897; 0.2 µg/mL (≈ 0.547 µM) with Serratia marcescens T-26 (Serratia marcescens T-26, pH 7.2); 6.25 µg/mL (≈ 17.1 µM) in [1] (Pseudomonas aeruginosa #1, pH 7.2); no more than 0.006 µg/mL in test [2]. The MIC in the test with Escherichia coli NIHJC-2 (Escherichia coli NIHJC-2, pH 7.2) was 0.02 µg/mL (≈ 0.0547 µM); against Proteus rettgeri KY 4289, no more than 0.006 µg/mL; against Serratia marcescens T-55 (setting [11]), 0.02 µg/mL (≈ 0.0547 µM); against Escherichia coli Juhl (Escherichia coli Juhl, pH 7.2), 0.02 µg/mL (≈ 0.0547 µM); in test [3] (Escherichia coli GN2411-5, pH 7.2), 0.01 µg/mL (≈ 0.0274 µM); in test [4] (setting [12]), 3.12 µg/mL (≈ 8.54 µM). Besides, the MIC in test [5] (Klebsiella pneumoniae Y-60, pH 7.2) was 0.02 µg/mL (≈ 0.0547 µM); in [6] (Staphylococcus aureus Smith, pH 7.2), 6.25 µg/mL (≈ 17.1 µM). Also, the antimicrobial activity entry in [7] was “strong antimicrobial activity”.

On to `CO/N=C(\C(=O)N[C@@H]1C(=O)N2C(C(=O)O)=C[C@@H](C)C[C@H]12)c1csc(N)n1` [B, (-)-cis-7β-[2-(2-amino-4-thiazolyl)-2-syn-methoxyiminoacetamido]-4α-methyl-1-azabicyclo[4,2,0]oct-2-en-8-on-2-carboxylic acid], for which the MIC was no more than 0.01 µg/mL in the test with Proteus mirabilis 1287; 0.02 µg/mL (≈ 0.0527 µM) with Proteus morganii KY 4298 (Proteus morganii KY 4298, pH 7.2); no more than 0.01 µg/mL against Proteus vulgaris 6897; 0.4 µg/mL (≈ 1.05 µM) with Serratia marcescens T-26 (setting [13]); 100 µg/mL (≈ 264 µM) in test [8]; 25 µg/mL (≈ 65.9 µM) in test [1] (setting [14]). Moreover, the MIC in test [2] was no more than 0.01 µg/mL; with Escherichia coli NIHJC-2 (setting [15]), 0.02 µg/mL (≈ 0.0527 µM); in the test with Proteus rettgeri KY 4289 it was no more than 0.01 µg/mL; in the test with Serratia marcescens T-55 (setting [11]), 0.05 µg/mL (≈ 0.132 µM); in the test with Pseudomonas putida 264 (Pseudomonas putida 264, pH 7.2), 0.05 µg/mL (≈ 0.132 µM); in the test with Escherichia coli Juhl (setting [16]), 0.02 µg/mL (≈ 0.0527 µM). In addition, the minimal inhibitory concentration (MIC) in [3] (setting [17]) is no more than 0.01 µg/mL; in test [4] (setting [12]), 1.56 µg/mL (≈ 4.11 µM); in [5] (setting [18]), 0.02 µg/mL (≈ 0.0527 µM); in test [6] (Staphylococcus aureus, pH 7.2, Staphylococcus aureus Smith, read-out: MIC), 6.25 µg/mL (≈ 16.5 µM). For the same compound, in [7], the antimicrobial activity entry is reported as “strong antimicrobial activity”.

For `CO/N=C(\C(=O)N[C@@H]1C(=O)N2C(C(=O)O)=C(COC(C)=O)CS[C@H]12)c1csc(N)n1` [C, reference compound], the MIC against Proteus mirabilis 1287 is 0.02 µg/mL (≈ 0.0439 µM); in the test on Proteus morganii KY 4298 (setting [10]) it was 0.05 µg/mL (≈ 0.11 µM); in the test with Proteus vulgaris 6897, no more than 0.01 µg/mL; in the test on Serratia marcescens T-26 (setting [13]) it was 0.78 µg/mL (≈ 1.71 µM); in test [8], 50 µg/mL (≈ 110 µM); in test [1] (setting [14]), 6.25 µg/mL (≈ 13.7 µM). Also, the MIC was no more than 0.01 µg/mL in [2]; 0.1 µg/mL (≈ 0.22 µM) in the test on Escherichia coli NIHJC-2 (setting [15]); no more than 0.01 µg/mL in the test on Proteus rettgeri KY 4289; 0.1 µg/mL (≈ 0.22 µM) in the test with Serratia marcescens T-55 (Serratia marcescens, T55, pH 7.2, Serratia marcescens T-55, read-out: MIC); 0.1 µg/mL (≈ 0.22 µM) with Pseudomonas putida 264 (Pseudomonas putida, 264, pH 7.2, Pseudomonas putida 264, read-out: MIC); 0.05 µg/mL (≈ 0.11 µM) in the test on Escherichia coli Juhl (setting [16]). The MIC in test [3] (setting [17]) worked out at 0.05 µg/mL (≈ 0.11 µM); in test [4] (Staphylococcus aureus, 209P, pH 7.2, Staphylococcus aureus 209-P, read-out: MIC), 0.78 µg/mL (≈ 1.71 µM); in [5] (setting [18]), 0.05 µg/mL (≈ 0.11 µM); in [9], 1.56 µg/mL (≈ 3.43 µM); in test [6] (Staphylococcus aureus Smith, pH 7.2, read-out: MIC), 1.56 µg/mL (≈ 3.43 µM).
